How the values were obtained:
pertussis toxin = pertussis toxin (Bordetella pertussis, UniProt P04977); test: NADase activity of pertussis toxin after activation and treatment with alkylating reagent (Example One); type: biochemical
Source text: The ADP-ribosylating activity of the pertussis toxin can be detected as a nicotinamide-adenine dinucleotide-glycohydrolase (NADase) activity, which can be conveniently assayed through the use of [nicotinamide-^14 C] or [nicotinamide-^3 H] NAD. NAD consists of ADP-ribose linked to nicotinimide, and thus the extent of the release of ADP-ribose from NAD is an indication of the ability of the toxin to cause ill effects. In conducting this assay of the hydrolysis of labelled NAD, ion-exchange column chromatography was employed to resolve the product from the substrate according to the method described by Moss et al., J. Biol. Chem. 258, 11879 (1983) which is incorporated herein by reference. However, several modifications to this method were employed. First, a QAE-Sephadex resin was employed, as was a [nicotinamide-^3 H] NAD. Specifically, a 2 ml QAE-Sephadex column was first washed with 10 ml 1NHCl, followed by 10 ml H2 O, 20 ml 0.5M Tris-HCl pH 7.0, and 40 ml H2 O. [^3 H] NAD was applied, and the column washed with 20 ml water to elute impurities. Purified [^3 H] NAD was eluted with 0.25M NaCl, and stored in small aliquots at -70° C. The purified [^3 H] NAD contributed 50 mM NaCl (final concentration) to the NADase assays.
Before the end of the reaction, 2 ml QAE-Sephadex columns were treated with 10 ml 0.1M imidazole-HCl pH 7.0 with 1.0M NaCl, followed by 40 ml water. The NADase reaction (in 100 μl) was terminated by adding 0.85 ml of ice-cold water, and the entire 0.95 ml was pipetted into a treated QAE column. The labelled nicotinamide was then eluted with 3 ml of water directly into a scintillation vial and counted. The absorbed labelled NAD was then eluted into radioactive waste with 10 ml 0.1M imidazole-HCl pH 7.0 with 1.0M NaCl, and the column stored partially immersed in a water bath until the next assay.
In order to determine if any active toxin remained after the inactivation, a large excess of sulfhydryl reductant was added to each tube to scavenge unreacted sulfhydryl reagent. The NADase activity of the preparation was then measured. The three incubations were performed under a nitrogen atmosphere using degassed solutions to prevent oxidation of sulfhydryl groups which would prevent the sulfhydryl reagent from modifying the sulfhydryl group.
The pertussis toxin in the Examples comprised 50 μg of the toxin in a 500 μl solution of 10 mM sodium phosphate-50 mM sodium chloride-water solution having a pH of 7. The enzymatic activity was detected as the hydrolysis of nicotinamide labelled NAD and ion-exchange column chromatography to resolve the product from the substrate. Unless otherwise noted, the assay was initiated by adding 0.5 to 2.5 μg of the toxin to a reaction mixture for a final volume of 100 μl. The NADase reaction was terminated by adding 0.85 ml of ice-cold water. The entire 0.95 ml was then pipetted into a QAE-Sephadex column (chloride form) and the labelled nicotinamide eluted with 3 ml of water directly into a scintillation vial and counted. […] One unit of NADase activity is defined as 1 pmol NAD hydrolyzed per hour.
One-half microgram of pertussis toxin was incubated for thirty minutes at […] in 100 mM Tris-HCl (pH 8.0), with or without activators, in a volume of 50 μl. When present, ATP and pyrophosphate were present in a concentration of 2 mM, CHAPS at 2 weight percent, and DTT in a concentration of either 2 mM (trial 1) or 1 mM (trial 2). 10 μl of water with or without iodoacetate or N-ethylmaleimide was then added and a second incubation conducted at 30° C. for either thirty minutes (trial 1) or fifteen minutes (trial 2). After this incubation, 10 μl of 200 mM DTT was added to each tube, and the tubes were incubated for thirty (trial 1) or sixty minutes (trial 2) on ice to scavenge the iodoacetate or N-ethylmaleimide.

[1] = system: S1 -S5 subunits of the toxin; test: Labelled iodoacetate incorporation into toxin subunits, electrophoresis and x-ray film (Examples Two and Six); set-up: species or system Bordetella pertussis
Sequence of S1 -S5 subunits of the toxin (P04977 35-269 limits assumed): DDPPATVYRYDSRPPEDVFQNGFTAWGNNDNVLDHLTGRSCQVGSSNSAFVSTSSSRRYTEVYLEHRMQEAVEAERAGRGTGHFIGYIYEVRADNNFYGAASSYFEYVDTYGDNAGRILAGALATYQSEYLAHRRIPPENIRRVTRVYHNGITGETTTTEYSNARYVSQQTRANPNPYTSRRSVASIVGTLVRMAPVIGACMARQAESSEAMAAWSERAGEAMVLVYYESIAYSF
Sequence of S1 -S5 subunits of the toxin (P04978 28-226 limits assumed, further chain): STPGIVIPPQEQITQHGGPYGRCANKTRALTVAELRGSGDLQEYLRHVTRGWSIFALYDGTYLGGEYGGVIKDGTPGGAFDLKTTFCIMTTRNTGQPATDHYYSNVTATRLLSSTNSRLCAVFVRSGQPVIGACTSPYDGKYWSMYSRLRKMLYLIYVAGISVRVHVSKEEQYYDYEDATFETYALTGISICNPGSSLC
Sequence of S1 -S5 subunits of the toxin (P04979 29-227 limits assumed, further chain): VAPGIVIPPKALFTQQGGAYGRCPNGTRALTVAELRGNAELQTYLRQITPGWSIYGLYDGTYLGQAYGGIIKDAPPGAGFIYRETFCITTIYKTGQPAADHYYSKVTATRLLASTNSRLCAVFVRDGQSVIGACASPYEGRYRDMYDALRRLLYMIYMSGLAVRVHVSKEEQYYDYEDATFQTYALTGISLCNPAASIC
Sequence of S1 -S5 subunits of the toxin (P0A3R5 43-152 limits assumed, further chain): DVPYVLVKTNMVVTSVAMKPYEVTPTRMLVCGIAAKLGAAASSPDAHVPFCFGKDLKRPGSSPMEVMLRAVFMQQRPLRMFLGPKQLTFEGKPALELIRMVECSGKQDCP
Sequence of S1 -S5 subunits of the toxin (P04981 35-133 limits assumed, further chain): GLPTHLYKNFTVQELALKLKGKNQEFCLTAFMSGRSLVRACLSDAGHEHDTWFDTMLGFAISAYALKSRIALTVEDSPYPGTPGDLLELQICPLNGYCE
Protocol: Pertussis toxin (2.5 μg) was incubated for thirty minutes at 37° C. in 50 μl of 50 mM Tris-HCl (pH 8.0) with or without combinations of the activators ATP, CHAPS and DTT. During this incubation, ATP was 1 mM, CHAPS was 1 weight percent, and DTT was 0.5 mM, when present. Following this incubation, 75 nmol (1.34 microCi of iodo[^14 C]acetate and 25 μl of water were then added, and the tubes incubated for an additional thirty minutes under nitrogen gas at 30° C. in the dark. This labelling reaction was terminated by adding 1 ml of ice-cold water containing 7.5 mM non-radioactive iodoacetate, 2.5 μg bovine serum albumin, and 150 μg sodium deoxycholate. After ten minutes on ice, 100 μl 72% triochloroacetic acid was added, and the precipitate recovered by centrifugation. Sodium dodecylsulfate and beta-mercaptoethanol were added, the sample heated to 95° C. for one minute, and then electrophoresed using 15% polyacrylamide gels. The fixed gels were then treated, dried and used to expose x-ray film at -70° C.
Pertussis toxin was incubated first at 37° C. for fifteen minutes in […] buffer A (100 mM Tris-HCl, pH 8.0 with 1 mM NaEDTA). EDTA was added to chelate divalent cations, which may promote oxidation of free --SH groups. During this incubation, DTT and ATP were present in concentrations of 1 mM each, and CHAPS was present in a concentration of 1 weight percent. Labelled iodoacetate was then added ([…], 12.5 mM), and the tube incubated on ice for twenty hours. The sample was then mixed with sodium dodecylsulfate and β-mercaptoethanol, heated at 95° C. for one minute, and electrophoresed. After electrophoresis, the gel was fixed, treated with Fluorohance (Research Products International), dried and used to expose x-ray film.

Sequence of pertussis toxin (P04977 35-269 limits assumed): as the sequence (P04977 35-269 limits assumed) above

O=C(O)CI [iodoacetate]
NADase activity (%) of the activity of toxin treated the same way without alkylating agent (pertussis toxin; first incubation: DTT 1 mM, CHAPS 2%, ATP 2 mM, Experiment #2, second incubation 15 min at 30° C, 25 μM NAD): 3%
NADase activity (%) of the activity of toxin treated the same way without alkylating agent (pertussis toxin; first incubation: DTT 1 mM, CHAPS 2%, pyrophosphate 2 mM, Experiment #2, second incubation 15 min at 30° C, 25 μM NAD): 31%
NADase activity (%) of the activity of toxin treated the same way without alkylating agent (pertussis toxin; first incubation: DTT 2 mM, CHAPS 2%, ATP 2 mM, Experiment #1, second incubation 30 min at 30° C, 125 μM NAD): 4%
NADase activity (%) of the activity of toxin treated the same way without alkylating agent (pertussis toxin; first incubation: DTT 2 mM, CHAPS 2%, pyrophosphate 2 mM, Experiment #1, second incubation 30 min at 30° C, 125 μM NAD): 28%
NADase activity (%) of the activity of toxin treated the same way without alkylating agent (pertussis toxin; first incubation: none, Experiment #1, second incubation 30 min at 30° C, 125 μM NAD): 62%
NADase activity (%) of the activity of toxin treated the same way without alkylating agent (pertussis toxin; first incubation: none, Experiment #2, second incubation 15 min at 30° C, 25 μM NAD): 87%
Amount of label incorporated into the S1 subunit ([1]; DTT 1 mM, ATP 1 mM, CHAPS 1%, labelled iodoacetate on ice for twenty hours): equal to the sum of that incorporated into the S2 and S3 subunits
Carboxymethylation of toxin subunits, in words ([1]; after activation of the toxin by DTT, ATP and CHAPS): carboxymethylated the enzymatic S1 subunit
Extent of carboxymethylation of the toxin ([1]; pH lowered from 8 to 7): decreases somewhat

From patent publication US5032398A, “Selective modification of the catalytic subunit of pertussis toxin” (priority 1986, dated 1991)
